{"source": "patent US20110166079A1", "about": "“METHODS OF TREATING CANCER WITH APOE PEPTIDES” (COGNOSCI, INC., priority 2008, published 2011)", "key": {"IκB": {"tested_on": "IκB", "experiment": "LPS-induced phosphorylation of IκB in BV2 microglia (Western blot)", "type": "cell-based, mouse", "conditions": "100 ng/mL LPS, 5 μM COG133, FIG. 2A", "method": "To determine whether COG peptides modulated the PI-3 kinase/Akt pathway and subsequent activation of NFκB, the phosphorylation state of proteins in the pathway was analyzed in cells exposed to bacteria or a bacterial antigen (lipopolysaccharide) in the absence and presence of COG peptides. In a first series of experiments, mouse BV2 microglia in six well plates were incubated with 100 ng/mL of LPS alone or in the presence of 5 μM COG133 (SEQ ID NO: 1) peptide. Cells were lysed and a clarified extract prepared by centrifugation. Polyacrylamide gels were loaded with 30 μg of extract per lane and run in SDS buffer. […] Membranes were then probed with an anit-phospho-IκBα antibody. Membranes were developed with Enhanced Chemiluminescence substrates (GE healthcare) and visualized by exposure to film. Membranes were then stripped and reprobed for total IκB using a non phospho-specific anti-IκBα antibody. A duplicate blot was probed with anti-GAPDH antibodies."}, "NFκB": {"tested_on": "NFκB", "experiment": "NFκB nuclear translocation in LPS-stimulated BV2 microglial cells (gel shift)", "type": "cell-based, mouse", "conditions": "nuclear extracts, FIG. 2B", "method": "In the dephosphorylated state, IκB binds to the transcription factor NFκB and prevents it from translocating to the nucleus to activate transcription of pro-survival proteins. […] A radiolabeled oligonucelotide containing a NFκB binding site was added to the proteins from the nuclear extracts and the proteins were subsequently separated by non-denaturing polyacrylamide gel electrophoresis. The amount of NFκB present in the nuclear extracts was detected by autoradiography (FIG. 2B). Nuclear NFκB was reduced in the presence of COG133 providing further evidence that this signal transduction cascade is suppressed in cells treated with ApoE peptides."}, "B-CLL cells": {"tested_on": "B-CLL cells", "experiment": "Cytotoxicity on B-CLL cells from CLL patients (MTS assay)", "conditions": "for Fold Change: EC50 relative to COG056 control", "method": "To determine whether COG peptides could counteract the overactivation of the Akt/NFkB pathway in B-CLL cells and effectively induce apoptosis, cytotoxicity testing was performed on freshly isolated B-CLL cells from CLL patients with COG peptides. Blood from CLL patients was collected and CD5+/CD19+ CLL cells were isolated using the RosetteSep™ Human B Cell Enrichment Cocktail. This method depletes whole blood of T cells, monocytes, and NK cells using a proprietary antibody cocktail containing anti-CD14, anti-CD2 and anti-CD16 antibodies to remove T cells, monocytes, and NK cells, respectively. The antibody cocktail crosslinks unwanted cells in human whole blood to multiple red blood cells forming immunorosettes thereby increasing the density of the rosetted cells, such that they pellet along with the free RBCs when centrifuged over a buoyant density medium such as Ficoll-Paque®. The highly enriched B-cell or B-CLL cells are left at the interface between Ficoll and the plasma.\nCOG peptides were applied to the isolated B-CLL cells (0.25×10^6 cells/well in a 96 well plate) for 72 hours, after which viable cells were assessed using the MTS assay ([…]).\nAdditional B-CLL cells and peripheral blood mononuclear cells (PBMC; i.e., normal B cells) were isolated from leukemia patients and normal volunteers, respectively, and were treated with a range of COG112 concentrations."}, "microglial cells": {"tested_on": "microglial cells", "conditions": "relative to COG133, microglial cells; cited from earlier work"}, "PP2A": {"target": "T1, PP2A (Mus musculus, UniProt P63330)", "T1 construct": "cells were lysed and PP2A was immunoprecipitated by adding an antibody targeted to the catalytic C-subunit of PP2A; endogenous in cells; host or cells: mouse macrophagic RAW cells", "T1 sequence (P63330 whole entry)": "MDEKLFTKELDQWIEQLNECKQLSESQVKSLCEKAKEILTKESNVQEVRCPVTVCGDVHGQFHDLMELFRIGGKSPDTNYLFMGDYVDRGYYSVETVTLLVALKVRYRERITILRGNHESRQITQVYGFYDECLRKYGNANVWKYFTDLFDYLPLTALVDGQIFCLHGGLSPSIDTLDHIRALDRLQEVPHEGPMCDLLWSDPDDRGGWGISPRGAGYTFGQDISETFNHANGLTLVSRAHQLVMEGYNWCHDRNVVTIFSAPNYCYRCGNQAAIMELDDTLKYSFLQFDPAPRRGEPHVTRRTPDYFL", "experiment": "PP2A activity in RAW cells (immunoprecipitation / phosphate release)", "type": "cell-based", "conditions": "30 minutes, 2 μM COG112, 10 nM okadaic acid, FIG. 3", "method": "Mouse macrophagic RAW cells were incubated with either 2 μM COG112 (SEQ ID NO: 2), 10 nM okadaic acid (an inhibitor of PP2A), or okadaic acid and COG112. After 30 minutes, cells were lysed and PP2A was immunoprecipitated by adding an antibody targeted to the catalytic C-subunit of PP2A. Half of the immunoprecipitate was separated by SDS-PAGE, blotted on to nitrocellulose, and probed with an anti-PP2AC antibody. The remaining portion was assayed for activity by adding 125 μL assay cocktail containing a phospho-threonine substrate peptide to the immunoprecipitated enzyme. After incubating at 37° C. with shaking, a 25 μL aliquot was removed and added to an ammonium molybdate solution (Upstate) that chelates free phosphate and changes color upon chelate formation. Aliquots were removed at various time intervals and the amount of free phosphate released from the peptide was determined by comparison to a phosphate standard curve. The rate of phosphate release was determined by linear fit to the time course data and was normalized to the relative PP2A concentration. […] PP2A activity was reduced in the presence of okadaic acid alone as expected. […] Thus, the active pool of PP2A in a cell can be regulated by ApoE peptides."}, "[1]": {"conditions": "B-CLL cells, 72 hours, MTS assay"}}, "note": "Where two headings read alike, the source gives them in different places. Non-standard residues stand in square brackets, D forms with d. Residues, ends and D or L forms follow the SMILES beside them. No end group written: not given here. Arg(NO2) = N=C(NCCC[C@H](N)C(=O)O)N[N+](=O)[O-]; Aib = CC(C)(N)C(=O)O"}
{"compound": "CC(=O)N[C@@H](CC(C)C)C(=O)N[C@@H](CCCNC(=N)N)C(=O)N[C@H](C(=O)N[C@@H](CCCNC(=N)N)C(=O)N[C@@H](CC(C)C)C(=O)N[C@@H](C)C(=O)N[C@@H](CO)C(=O)N[C@@H](Cc1c[nH]cn1)C(=O)N[C@@H](CC(C)C)C(=O)N[C@@H](CCCNC(=N)N)C(=O)N[C@@H](CCCCN)C(=O)N[C@@H](CC(C)C)C(=O)N[C@@H](CCCNC(=N)N)C(=O)N[C@@H](CCCCN)C(=O)N[C@@H](CCCNC(=N)N)C(=O)N[C@@H](CC(C)C)C(=O)N[C@@H](CC(C)C)C(N)=O)C(C)C", "note": "[COG133]", "values": [{"measurement": "LPS-induced phosphorylation of IκB", "setting": "IκB", "value": "reduces"}, {"measurement": "nuclear NFκB", "setting": "NFκB", "value": "reduced"}, {"measurement": "cytotoxic activity compared in words", "setting": "B-CLL cells; [1]", "value": "slightly improved activity relative to the COG056"}, {"measurement": "Fold Change", "setting": "B-CLL cells", "value": 2.9}]}
{"compound": "CC(C)C[C@H](NC(=O)[C@H](CC(C)C)NC(=O)[C@H](CCCNC(=N)N)NC(=O)[C@H](CCCCN)NC(=O)[C@H](CCCNC(=N)N[N+](=O)[O-])NC(=O)[C@H](CC(C)C)NC(=O)[C@H](CCCNC(=N)N)NC(=O)[C@H](CCCCN)NC(=O)[C@H](CC(C)C)NC(=O)C(C)(C)NC(=O)[C@H](CO)NC(=O)[C@H](C)NC(=O)[C@H](CC(C)C)NC(=O)[C@H](CCCNC(=N)N)NC(=O)[C@@H](NC(=O)[C@H](CCCNC(=N)N)NC(=O)[C@@H](N)CC(C)C)C(C)C)C(=O)O", "note": "[COG248, LRVRLAS(Aib)LKRL(nitroR)KRLL] (H-LRVRLAS[Aib]LKRL[Arg(NO2)]KRLL-OH)", "values": [{"measurement": "cytotoxic activity compared in words", "setting": "B-CLL cells; [1]", "value": "enhanced activity compared to COG133"}, {"measurement": "Fold Change", "setting": "B-CLL cells", "value": 5.5}]}
{"compound": "CC(=O)N[C@@H](C)C(=O)N[C@@H](CO)C(=O)NC(C)(C)C(=O)N[C@@H](CC(C)C)C(=O)N[C@@H](CCCNC(=N)N)C(=O)N[C@@H](CCCCN)C(=O)N[C@@H](CC(C)C)C(=O)NC(C)(C)C(=O)N[C@@H](CCCCN)C(=O)N[C@@H](CCCNC(=N)N)C(=O)N[C@@H](CC(C)C)C(=O)N[C@@H](CC(C)C)C(N)=O", "note": "[COG1410, Ac-AS-Aib-LRKL-Aib-KRLL-NH2] (Ac-AS[Aib]LRKL[Aib]KRLL-NH2)", "values": [{"measurement": "potency for suppressing NO production", "setting": "microglial cells", "value": "improved potency"}, {"measurement": "cytotoxic activity compared in words", "setting": "B-CLL cells", "value": "no difference in potency"}, {"measurement": "Fold Change", "setting": "B-CLL cells", "value": 2.3}, {"measurement": "EC50", "setting": "B-CLL cells; read-out: EC50 (cytotoxicity of COG compounds on B-CLL cells), isolated B-CLL cells, 72 hours, MTS assay", "value": "5.7 ± 3", "unit": "µM"}]}
{"compound": "C=C1[C@@H](O)[C@@H]2O[C@]3(CC[C@H](/C=C/[C@@H](C)[C@@H]4CC(C)=C[C@@]5(O[C@H](C[C@@](C)(O)C(=O)O)CC[C@H]5O)O4)O3)CC[C@H]2O[C@@H]1[C@@H](O)C[C@H](C)[C@H]1O[C@@]2(CCCCO2)CC[C@H]1C", "note": "[okadaic acid, reference compound]", "values": [{"measurement": "PP2A activity (rate of phosphate release)", "setting": "PP2A", "value": "reduced"}]}
{"compound": "LLRKRLKRLHSALRVRL [COG056, reference compound]", "values": [{"measurement": "Fold Change", "setting": "B-CLL cells", "value": 1.0}, {"measurement": "EC50", "setting": "B-CLL cells; human, 72 hours", "value": "12.9 ± 4.6", "unit": "µM"}]}
